The test system of test [1] is LNCaP cells. Kind of test: [3H]2-DG glucose uptake assay in LNCaP cells. The format is cell-based, human. The following applies: for IC50: Homo sapiens, LNCaP, Krebs-Ringer phosphate buffer, 37° C., 30 min of drug treatment, read-out: IC50 in blocking [3H]2-DG uptake into LNCaP cells; for inhibition of [3H]2-DG uptake into LNCaP cells (screening, in words): each at 5 μM, 30 min of exposure. How it is done: Screening of the focused compound library to identify lead glucose uptake inhibitors.
Glucose Uptake Assay. LNCaP cells were seeded in six-well plates (3×10^5 cells/well) for 24 h. […] The cells were lysed in […] lysis buffer (10 mM Tris-HCl pH 8.0, 0.1% SDS) and aliquots were taken for measurement of radioactivity using a scintillation counter (Beckman LS6500).

Test [2] has as its system LNCaP cells. Kind of test: MTT cell viability assay, LNCaP. The format is cell-based, human. The following applies: Homo sapiens, LNCaP, 72 h, MTT, 10% FBS. How it is done:
Cell Viability Assay. Cell viability was determined using the 3-(4,5-dimethylthiazol-2-yl)-2,5-diphenyltetrazolium bromide (MTT) assay. Cancer cells were seeded at 5000 cells/well and normal cells were seeded at 8000 cells/well in 96-well plates and incubated in 10% FBS-supplemented medium for 24 h. Cells were then treated with individual agents for 72 h. Drug-containing medium was replaced with medium containing MTT (0.5 mg/mL), followed by incubation at 37° C. for 1 h. After removal of medium, the reduced MTT dye in each well was solubilized in 100 μL of DMSO and absorbance at 570 nm was measured.
Compound 30 was evaluated for antiproliferative activity in panels of different human cancer cells lines, including those of prostate, breast and pancreatic cancers. In all experiments, cells were treated with a range of concentrations of Compound 30 in the presence of 10% fetal bovine serum (FBS). Cell viability was then determined after 72 h of treatment using the 3-(4,5-dimethylthiazol-2-yl)-2,5-diphenyltetrazolium bromide (MTT) assay. […] It is noteworthy that despite this high antiproliferative potency, normal human prostate epithelial cells (PrECs) were resistant to the cytotoxic effect of Compound 30 even at 10 μM.

As to `CC1(COc2ccc(CC3SC(=O)NC3=O)cc2)CCCCC1` (stereo not shown) [Compound 1, ciglitazone, reference compound], the IC50 in the test on LNCaP cells [1] was found to be 78 µM; in the test with LNCaP cells [2], 60 µM.

For the molecule `CC1(COc2ccc(/C=C3\SC(=O)NC3=O)cc2)CCCCC1` [Compound 2, (Z)-5-(4-[(1-methylcyclohexyl)methoxy]benzylidene)-thiazolidine-2,4-dione, reference compound], the IC50 in the test with LNCaP cells [1] worked out at 52 µM; in the test on LNCaP cells [2], 28 µM.

Take `CC1(CN2C(=O)S/C(=C\c3ccc(O)c(C(F)(F)F)c3)C2=O)CCCCC1` [Compound 4, (Z)-5-(4-hydroxy-3-(trifluoromethyl)benzylidene)-3-((1-methylcyclohexyl)methyl)thiazolidine-2,4-dione, reference compound]: the figures for the IC50 in the test with LNCaP cells [1] and in the test on LNCaP cells [2] were 9 µM and 6 µM, respectively.

Regarding `O=C1SC(=Cc2ccc(O)c(C(F)(F)F)c2)C(=O)N1CC(CC(F)(F)F)CC(F)(F)F` [Compound 28, 5-(4-Hydroxy-3-trifluoromethyl-benzylidene)-3-[4,4,4-trifluoro-2-(2,2,2-trifluoro-ethyl)-butyl]-thiazolidine-2,4-dione], in the test on LNCaP cells [1], the IC50 was determined as 3.5 µM and the “inhibition of [3H]2-DG uptake into LNCaP cells (screening, in words)” value is reported as “substantially improved potency relative to compound 5”. The IC50 in the test on LNCaP cells [2] turned out to be 2.2 µM.

For `O=C1SC(=Cc2ccc(O)c(C(F)(F)F)c2)C(=O)N1CC(F)(CC(F)(F)F)CC(F)(F)F` [Compound 29, 5-(4-Hydroxy-3-trifluoromethyl-benzylidene)-3-[2,4,4,4-tetrafluoro-2-(2,2,2-trifluoro-ethyl)-butyl]-thiazolidine-2,4-dione], the “inhibition of [3H]2-DG uptake into LNCaP cells (screening, in words)” value in the test with LNCaP cells [1] is “substantially improved potency relative to compound 5”.

The values above are taken from US9174951B2, “Glucose transporter inhibitors” (The Ohio State University Research Foundation, priority 2012, dated 2015).
